Test results from patent publication US20050153894A1, “p21 peptides” (Cyclacel Limited, priority 1999, published 2005).
“Also recorded” adds a separate entry of the source. Read-outs that look alike come from different tables or passages of the source. Square brackets hold non-standard residues; d marks the D form. hPhe = N[C@@H](CCc1ccccc1)C(=O)O; Abu = CC[C@H](N)C(=O)O; βLeu = beta-Leu

Tests used:
CDK4/Cyclin D1 [1] = target: T1, CDK4/Cyclin D1 (Homo sapiens, UniProt P24385); conditions: WO97/42222 and Ball et al., cited from earlier work
T1 construct: made in house; host or cells: CDK4: Sf9 insect cells (baculovirus)
T1 sequence (P24385 whole entry): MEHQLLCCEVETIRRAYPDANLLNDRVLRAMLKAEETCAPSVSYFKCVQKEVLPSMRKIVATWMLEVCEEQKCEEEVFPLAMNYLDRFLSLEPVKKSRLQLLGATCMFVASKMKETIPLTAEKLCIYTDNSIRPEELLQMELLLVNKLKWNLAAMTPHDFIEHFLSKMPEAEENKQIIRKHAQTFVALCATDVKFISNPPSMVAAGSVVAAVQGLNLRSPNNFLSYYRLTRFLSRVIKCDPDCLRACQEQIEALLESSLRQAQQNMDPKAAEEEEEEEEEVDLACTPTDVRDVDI
T1 sequence (P11802 whole entry partner): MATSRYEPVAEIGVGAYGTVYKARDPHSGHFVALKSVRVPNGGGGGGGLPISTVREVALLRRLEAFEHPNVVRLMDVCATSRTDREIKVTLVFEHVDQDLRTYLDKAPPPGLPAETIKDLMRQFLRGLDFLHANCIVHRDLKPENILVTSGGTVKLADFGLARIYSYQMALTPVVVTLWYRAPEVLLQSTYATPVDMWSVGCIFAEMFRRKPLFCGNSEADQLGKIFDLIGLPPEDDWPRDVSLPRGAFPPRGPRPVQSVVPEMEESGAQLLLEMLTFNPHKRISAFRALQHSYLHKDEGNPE

CDK2/Cyclin E [2] = target: T2, CDK2/Cyclin E (Homo sapiens, UniProt P24864); conditions: GST-Rb phosphorylation; Ball et al.; cited from earlier work
T2 construct: 6xHis; made in house; host or cells: Sf9 insect cells (baculovirus co-expression)

Cyclin D1 = target: T3, Cyclin D1 (Homo sapiens, UniProt P24385); experiment: Competitive Cyclin D1 binding assay (ELISA), immobilised biotinylated p21 (149-159); conditions: for IC50: immobilised p21 (149-159) peptide
T3 construct: made in house
T3 sequence (P24385 whole entry): as the sequence (P24385 whole entry) above
Text: The amount of bound Cyclin D1/Cyclin A was immunodetected and quantified by Turbo-ELISA reagent (PIERCE).
The next important question was if these peptides share the same kinase inhibitory mechanism (bind to the same Cyclin docking site).

CDK4/Cyclin D1 [3] = target: T1, CDK4/Cyclin D1; experiment: CDK4/Cyclin D1 kinase assay, phosphorylation of GST-Rb; type: biochemical
Protocol: (§1) The phosphorylation reaction mixture (total volume 40 μl) consisted of 50 mM HEPES pH 7.4, 20 mM MgCl2, 5 mM EGTA, 2 mM DTT, 20 mM β-glycerophosphate, 2 mM NaF, 1 mM Na3VO4, Protease Inhibitors Cocktail (Sigma, see above), BSA 0.5 mg/ml, 1 μg purified enzyme complex, 10 μl of GST-Rb-Sepharose beads, 100 μM ATP, 0.2 μCi ^32P-ATP. The reaction was carried out for 30 min at 30° C. at constant shaking. At the end of this period 100 μl of 50 mM HEPES, pH 7.4 and 1 mM ATP were added to each well and the total volume was transferred onto GFC filtered plate. The plate was washed 5 times with 200 μl of 50 mM HEPES, pH 7.4 and 1 mM ATP. To each well were added 50 μl scintillant liquid and the radioactivity of the samples was measured on Scintilation counter (Topcount, HP). The IC50 values of different peptides were calculated using GraFit software.
Peptides were synthesized as described above. Cyclin D1 was expressed in E coli BL21(DE3) using PET expression vector and purified from the inclusion bodies. After refolding Cyclin D1 was cross-linked on SulfoLink agarose support (PIERCE). CDK4-6×His was expressed in Sf9 insect cells infected with the appropriate baculovirus construct and purified by metal-affinity chromatography (Quiagen). […] CDK4/Cyclin D1 phosphorilation of Rb was determined by incorporation of radio-labeled phosphate in GST-Rb in 96-well format kinase assay. […] The reaction was carried out for 30 min at 30 C at constant shaking. The GST-Rb-Sepharose beads were washed with 50 mM HEPES and 1 mM ATP and the radioactivity was measured on Scintillation counter (Topcount, HP)

CDK2/Cyclin E [4] = target: T2, CDK2/Cyclin E; experiment: CDK2/Cyclin E kinase assay, phosphorylation of GST-Rb; type: biochemical
Protocol: as §1

CDK2/cyclin A [5] = target: T4, CDK2/cyclin A (Homo sapiens, UniProt P20248); experiment: Functional kinase assay, CDK2/cyclin A phosphorylation of GST-pRb(773-928); type: biochemical; conditions: read-out: Inhibitory activity IC50 ± SD, Functional kinase assay
Protocol: Reactions were stopped on ice, followed by addition of 5 μL/well of glutathione-Sepharose 4B (Amersham Biosciences) and further incubation with shaking for 30 min at room temperature. The mixtures were then filtered on Whatman GF/C filterplates and washed 4 times with 0.2 mL/well of 50 mM HEPES containing 1 mM ATP. Plates were dried, sealed, and scintillant (Microscint 40) was added. Incorporated radioactivity was measured using a scintillation counter (TopCount, Packard Instruments, Pangbourne, Berks, UK). Half-maximal inhibition (IC50) was calculated from dose-response curves.

CDK1/Cyclin B [6] = target: T5, CDK1/Cyclin B (Homo sapiens, UniProt P14635); experiment: CDK1/Cyclin B kinase assay, phosphorylation of GST-Rb; type: biochemical; conditions: CDK1-Cyclin B induced phosphorylation of GST-Rb
T5 construct: 6xHis; made in house; host or cells: Sf9 insect cells (baculovirus co-expression)
T5 sequence (P14635 whole entry): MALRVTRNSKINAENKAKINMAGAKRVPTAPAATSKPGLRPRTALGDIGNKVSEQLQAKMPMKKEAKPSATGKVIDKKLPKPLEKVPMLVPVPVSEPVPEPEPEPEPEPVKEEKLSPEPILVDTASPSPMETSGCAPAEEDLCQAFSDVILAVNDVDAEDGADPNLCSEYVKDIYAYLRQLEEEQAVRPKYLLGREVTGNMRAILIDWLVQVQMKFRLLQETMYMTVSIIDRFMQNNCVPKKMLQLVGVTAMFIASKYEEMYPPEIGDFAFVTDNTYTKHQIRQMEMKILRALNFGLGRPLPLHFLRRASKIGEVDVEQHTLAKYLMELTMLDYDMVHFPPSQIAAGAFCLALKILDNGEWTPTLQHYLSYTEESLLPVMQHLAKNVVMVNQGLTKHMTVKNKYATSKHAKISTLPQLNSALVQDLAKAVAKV
T5 sequence (P06493 whole entry partner): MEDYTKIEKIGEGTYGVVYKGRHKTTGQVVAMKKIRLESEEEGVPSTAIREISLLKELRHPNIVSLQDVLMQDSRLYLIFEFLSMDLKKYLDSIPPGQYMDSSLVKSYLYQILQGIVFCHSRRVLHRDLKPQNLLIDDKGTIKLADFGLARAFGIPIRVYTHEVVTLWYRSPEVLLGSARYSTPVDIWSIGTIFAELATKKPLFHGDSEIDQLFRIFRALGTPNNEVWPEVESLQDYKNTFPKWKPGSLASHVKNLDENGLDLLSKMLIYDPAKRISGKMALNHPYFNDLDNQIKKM
Protocol: as §1

CDK1/Cyclin B [7] = target: T5, CDK1/Cyclin B; experiment: CDK1/Cyclin B kinase assay, phosphorylation of Histone 1; type: biochemical; conditions: for IC50: CDK1-Cyclin B induced phosphorylation of Histone 1
Protocol: (§2) Histone 1 phosphorylation induced by CDK2/Cyclin E and CDK1/Cyclin B was measured using similar method. The concentration of Histone 1 in the kinase reaction was 1 mg/ml (unless different stated).

CDK2/cyclin A [8] = target: T4, CDK2/cyclin A; experiment: CDK2/cyclin A kinase assay, substrate pRb(773-928); type: biochemical; conditions: relative to H-His-Ala-Lys-Arg-Arg-Leu-Ile-Phe-NH2 (=1), pRb substrate, [ATP] = 100 μM
Text: Reactions were stopped on ice, followed by filtration through p81 filterplates (Whatman Polyfiltronics, Kent, UK).

Cyclin A = Cyclin A (Homo sapiens, UniProt P20248); experiment: Cyclin A binding assay, immobilised biotinyl-Ahx-[…]NH2; conditions: relative to H-His-Ala-Lys-Arg-Arg-Leu-Ile-Phe-NH2 (=1)
Cyclin A, sequence (P20248 whole entry): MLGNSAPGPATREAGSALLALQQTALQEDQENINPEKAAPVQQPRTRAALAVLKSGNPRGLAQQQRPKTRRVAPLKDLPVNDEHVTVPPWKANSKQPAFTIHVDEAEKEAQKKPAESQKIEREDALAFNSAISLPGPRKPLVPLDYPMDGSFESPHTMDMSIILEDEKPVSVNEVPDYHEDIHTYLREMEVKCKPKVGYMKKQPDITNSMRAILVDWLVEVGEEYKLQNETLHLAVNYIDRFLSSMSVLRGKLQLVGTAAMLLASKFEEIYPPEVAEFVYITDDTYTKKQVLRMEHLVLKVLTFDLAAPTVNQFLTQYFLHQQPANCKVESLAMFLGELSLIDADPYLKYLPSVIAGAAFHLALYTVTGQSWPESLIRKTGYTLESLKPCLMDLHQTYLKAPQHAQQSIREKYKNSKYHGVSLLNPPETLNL

CDK2/Cyclin E [9] = target: T2, CDK2/Cyclin E; experiment: CDK2/Cyclin E kinase assay, phosphorylation of Histone 1; type: biochemical
Protocol: as §2

cyclin B = cyclin B (Homo sapiens, UniProt P14635); experiment: Pull-down with immobilised peptide: cyclin B; type: binding
cyclin B, sequence (P14635 whole entry): as the sequence (P14635 whole entry) above

[10] = GST-pRb substrate, [ATP] = 100 μM

In the case of “p21(141-160): 20-residue peptide derived from the C-terminus of p21^WAF1 (residues 141-160), Ball et al.”, the IC50 (CDK4/Cyclin D1 [1]; Asp149Ala effect said not reproducible, read-out: IC50, cyclin D1-CDK4 inhibition) is given as 0.1 µM and the “activity against cyclinD1/CDK4 relative to cyclinE/CDK2” value (CDK2/Cyclin E [2]) is given as 40 times.

In the case of CC[C@H](NC(=O)[C@H](C)NC(=O)[C@@H](N)CO)C(=O)N[C@@H](CCCNC(=N)N)C(=O)N[C@@H](CC(N)=O)C(=O)N[C@@H](CC(C)C)C(=O)N[C@@H](Cc1ccccc1)C(=O)NCC(N)=O [SEQ ID NO. 41, H-Ser-Ala-Abu-Arg-Asn-Leu-Phe-Gly-NH2], the IC50 (Cyclin D1) is reported as > 200 µM.

With KRRLIFSK [reference compound] the “Kinase Inhibition Cyclin D1/CDK4 % Inhibition” value (CDK4/Cyclin D1 [3]; [10]) was 20%, the “Kinase Inhibition Cyclin E/CDK2 % Inhibition” value (CDK2/Cyclin E [4]; [10]) was 60% and the “Kinase Inhibition Cyclin E/CDK2 IC30” value (CDK2/Cyclin E [4]; [10]) was >200 µM. For the same compound, the “concentration for inhibitory activity against cyclin D1-CDK4 relative to parent p21(141-160)” value (CDK4/Cyclin D1 [1]) was 1000 times.

With VI.38 (Ac-RR[βLeu]F-NH2) the IC50 (CDK2/cyclin A [5]; recombinant human CDK2/cyclin A, GST-pRb(773-928) substrate, 30 min at 30° C) was 216 µM.

CC(=O)N[C@@H](CC(C)C)C(=O)N[C@@H](CC(N)=O)C(=O)N[C@@H](Cc1ccc(F)cc1)C(N)=O [VI.42] gave an IC50 (CDK2/cyclin A [5]) of 139 ± 10 µM.

In the case of CC[C@H](C)[C@H](NC(=O)[C@H](CC(C)C)NC(=O)[C@H](CCCNC(=N)N)NC(=O)[C@H](CCCNC(=N)N)NC(=O)[C@H](CCCCN)NC(=O)[C@H](C)NC(=O)[C@H](Cc1c[nH]cn1)NC(=O)[C@H](Cc1ccc(O)cc1)NC(=O)[C@H](Cc1ccccc1)NC(=O)[C@@H](N)CC(=O)O)C(=O)N[C@@H](Cc1ccccc1)C(=O)N[C@@H](CO)C(N)=O [p21(149-160)Ser153Ala], the IC50 (CDK2/Cyclin E [4]; read-out: IC50, CDK2-Cyclin E induced phosphorylation of GST-Rb) is reported as 0.04 µM, the IC50 (CDK1/Cyclin B [6]) is reported as > 200 µM and the IC50 (CDK1/Cyclin B [7]) is reported as > 200 µM.

For CC(C)C[C@H](NC(=O)[C@H](CC(=O)O)NC(=O)[C@H](CC(C)C)NC(=O)[C@H](CCCNC(=N)N)NC(=O)[C@H](CCCNC(=N)N)NC(=O)[C@H](CCCCN)NC(=O)[C@H](CO)NC(=O)[C@@H](N)Cc1c[nH]cn1)C(N)=O, the “inhibition of CDK4/Cyclin D1 phosphorylation of GST-Rb, in words” value (CDK4/Cyclin D1 [3]) was “not able to inhibit”, the “Kinase Inhibition Cyclin D1/CDK4 % Inhibition” value (CDK4/Cyclin D1 [3]; phosphorylation of pRb) was 24% and the “Kinase Inhibition Cyclin E/CDK2 % Inhibition” value (CDK2/Cyclin E [4]; phosphorylation of pRb) was 74%. The “competition with Biotin-DFYHSKRRLIF for binding to Cyclin D1, in words” value (Cyclin D1) was “not able” and the IC50 (Cyclin D1) was > 200 µM.

With CC(C)C[C@H](NC(=O)[C@H](CC(=O)O)NC(=O)[C@H](CC(C)C)NC(=O)[C@H](CCCNC(=N)N)NC(=O)[C@H](CCCNC(=N)N)NC(=O)[C@H](CCCCN)NC(=O)[C@@H](NC(=O)[C@@H]1CCCN1)C(C)C)C(N)=O [reference compound] the “inhibition of CDK4/Cyclin D1 phosphorylation of GST-Rb, in words” value (CDK4/Cyclin D1 [3]) was “not able to inhibit”, the “Kinase Inhibition Cyclin D1/CDK4 % Inhibition” value (CDK4/Cyclin D1 [3]; phosphorylation of pRb) was 58% and the IC50 (CDK4/Cyclin D1 [3]; phosphorylation of pRb, read-out: Kinase Inhibition Cyclin D1/CDK4 IC50) was 99 µM. For the same compound, the “Kinase Inhibition Cyclin E/CDK2 % Inhibition” value (CDK2/Cyclin E [4]; phosphorylation of pRb) was 74%, the IC50 (CDK2/Cyclin E [4]; phosphorylation of pRb, read-out: Kinase Inhibition Cyclin E/CDK2 IC50) was 2.1 µM and the “competition with Biotin-DFYHSKRRLIF for binding to Cyclin D1, in words” value (Cyclin D1) was “not able”. For the same compound, the IC50 (Cyclin D1) was > 100 µM.

For CC(C)C[C@H](NC(=O)[C@H](CCCNC(=N)N)NC(=O)[C@H](CCCNC(=N)N)NC(=O)[C@H](CCCCN)NC(=O)[C@H](CO)NC(=O)[C@@H](N)Cc1c[nH]cn1)C(=O)N[C@@H](Cc1ccccc1)C(=O)NCC(N)=O, the IC50 (Cyclin D1) was > 200 µM.

Work on H-HAKRRLIF-NH2 yielded an IC50 (Cyclin D1) of 13 µM.

For “H-His-Ala-Abu-Arg-Arg-Leu-Ile Phe-NH2 (H-HA[Abu]RRLIF-NH2; SMILES CC[C@H](NC(=O)[C@H](C)NC(=O)[C@@H](N)Cc1c[nH]cn1)C(=O)N[C@@H](CCCNC(=N)N)C(=O)N[C@@H](CCCNC(=N)N)C(=O)N[C@@H](CC(C)C)C(=O)N[C@H](C(=O)N[C@@H](Cc1ccccc1)C(N)=O)[C@@H](C)CC)”, the “Relative activity Kinase Inhibition” value (CDK2/cyclin A [8]; Lys154 substitutions) was 0.8 and the “Relative activity Cyclin A Binding” value (Cyclin A; Lys154 substitutions) was 0.2.

For H-DFYHSKRRLIFS-NH2 [p21(149-160)], the “inhibition of CDK4/Cyclin D1 phosphorylation of GST-Rb, in words” value (CDK4/Cyclin D1 [3]) was “very similar activity”, the inhibition at 100 µM (CDK4/Cyclin D1 [3]; [10]) was 70% and the “inhibition of CDK2/Cyclin E phosphorylation of GST-Rb, in words” value (CDK2/Cyclin E [4]) was “specifically inhibit”. The IC50 (CDK1/Cyclin B [6]) was > 200 µM, the “inhibition of CDK2/Cyclin E phosphorylation of Histone 1, in words” value (CDK2/Cyclin E [9]) was “completely inactive; also recorded: did not inhibit” and the “inhibition of CDK2/Cyclin E phosphorylation of Histone 1, in words” value (CDK2/Cyclin E [9]; listed as p21 (149-160)) was “do not inhibit”. For the same compound, the “inhibition of CDK1/cyclin B phosphorylation of histone H1, in words” value (CDK1/Cyclin B [7]) was “did not have any significant effect”, the IC50 (CDK1/Cyclin B [7]) was > 200 µM and the “pull-down of cyclin B (monomer or complex with CDK1)” value (cyclin B) was “unable to precipitate”.

In the case of “H-Phe-Ala-Lys-Arg-Arg-Leu.Ile Phe-NH2 (H-FAKRRLIF-NH2)”, the “Relative activity Kinase Inhibition” value (CDK2/cyclin A [8]; His152 substitutions) is reported as 3 and the “Relative activity Cyclin A Binding” value (Cyclin A; His152 substitutions) is reported as 1.

In the case of “H-His Ala-Lys-Arg-Arg-Ile-Ile Phe-NH2 (H-HAKRRIIF-NH2)”, the “Relative activity Kinase Inhibition” value (CDK2/cyclin A [8]; Leu157 substitutions) is reported as 1.5 and the “Relative activity Cyclin A Binding” value (Cyclin A; Leu157 substitutions) is reported as 0.2.

For “H-Thi-Ala-Lys-Arg-Arg-Leu-Ile Phe-NH2 (XAKRRLIF; N-terminal Thi, C-terminal amide)”, the “Relative activity Kinase Inhibition” value (CDK2/cyclin A [8]; His152 substitutions) was 2 and the “Relative activity Cyclin A Binding” value (Cyclin A; His152 substitutions) was 0.2.

With “H-His-Ala-Lys-Arg-Arg-Leu-Ile-Hof-NH2 (H-HAKRRLI[hPhe]-NH2; SMILES CC[C@H](C)[C@H](NC(=O)[C@H](CC(C)C)NC(=O)[C@H](CCCNC(=N)N)NC(=O)[C@H](CCCNC(=N)N)NC(=O)[C@H](CCCCN)NC(=O)[C@H](C)NC(=O)[C@@H](N)Cc1c[nH]cn1)C(=O)N[C@@H](CCc1ccccc1)C(N)=O)” the “Relative activity Kinase Inhibition” value (CDK2/cyclin A [8]; Phe159 substitutions) was <0.1 and the “Relative activity Cyclin A Binding” value (Cyclin A; Phe159 substitutions) was <0.1.
